Reference: BindingDB's records for patent US12378249 (Genentech, 2025)

Assays:
[1] = target: Mitogen-activated protein kinase kinase kinase kinase 1 (Homo sapiens, UniProt Q92918); experiment: HPK1 Lantha Binding Assay (“Lanth”)
Description: (§1) Assay Condition:The following assay concentrations and times were used: 2 nM HPK1, 2 nM Eu-Anti-GST Ab, and 15 nM Tracer222, with 60 min incubation time.HPK Lantha Binding Assay:For the binding assay, 4 ul 2X HPK1 and Eu-anti-GST antibody were added to each well of the assay plate using a Multidrop reagent dispenser. The solutions were incubated in a 23 C incubator for 1 h. To each well of the assay plate was added 4 ul 2× Tracer-222 using a Multidrop reagent dispenser. The solutions were again incubated in a 23 C incubator for 1 h. The results of the assay were read using an Envision plate reader with the following parameters:TR_FRET, 340ex/615 and 665em; 100 usec Delay; and 200 usec integration.

[2] = target: T1, Mitogen-activated protein kinase kinase kinase kinase 1 [T165E,S171E] (Homo sapiens, UniProt Q92918, S171E/T165E); experiment: HPK1 Lantha Binding Assay (“Lanth”)
T1 construct: gene MAP4K1
Description: as §1

Mitogen-activated protein kinase kinase kinase kinase 1, sequence (Q92918 whole entry): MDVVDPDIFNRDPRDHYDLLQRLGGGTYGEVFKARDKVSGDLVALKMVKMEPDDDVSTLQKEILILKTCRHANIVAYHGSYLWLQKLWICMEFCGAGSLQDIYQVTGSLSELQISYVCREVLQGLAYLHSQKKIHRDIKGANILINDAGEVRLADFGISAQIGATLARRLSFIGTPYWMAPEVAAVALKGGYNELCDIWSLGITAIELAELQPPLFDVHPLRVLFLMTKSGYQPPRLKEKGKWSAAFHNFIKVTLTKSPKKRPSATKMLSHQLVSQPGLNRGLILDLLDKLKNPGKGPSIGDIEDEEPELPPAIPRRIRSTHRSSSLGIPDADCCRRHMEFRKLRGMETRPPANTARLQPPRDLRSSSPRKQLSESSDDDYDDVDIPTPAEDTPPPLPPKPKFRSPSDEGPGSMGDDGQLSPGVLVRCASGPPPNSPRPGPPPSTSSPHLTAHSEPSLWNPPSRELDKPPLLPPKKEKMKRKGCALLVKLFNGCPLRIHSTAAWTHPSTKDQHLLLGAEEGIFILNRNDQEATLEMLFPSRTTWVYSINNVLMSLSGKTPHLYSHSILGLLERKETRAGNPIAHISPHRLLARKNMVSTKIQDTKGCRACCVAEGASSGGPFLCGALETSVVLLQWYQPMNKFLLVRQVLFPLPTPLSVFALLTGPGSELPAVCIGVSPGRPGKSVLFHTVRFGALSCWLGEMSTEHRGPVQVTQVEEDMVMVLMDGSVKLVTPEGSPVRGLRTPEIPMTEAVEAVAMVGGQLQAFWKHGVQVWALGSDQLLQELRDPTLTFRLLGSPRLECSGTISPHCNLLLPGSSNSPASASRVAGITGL
T1 sequence (Q92918 whole entry T165E/S171E, looked up): as the sequence (Q92918 whole entry) above, with T165E, S171E counted along it

Ki [1] [nM] | Ki [2] [nM] | Structure (SMILES)
6 | – | CCc1ccnc(Nc2cc3cc(-c4cnccc4C)ccc3cn2)c1 [US12378249, Compound 105]
– | 0.013 | Cc1c(N)cncc1-c1cc2cc(Nc3cc4n(n3)CC(=O)N(CCN3CC(O)C3)CC4)ncc2cc1F [US12378249, Compound 165]
